Test results published in ChEMBL document CHEMBL1201862, “PubChem BioAssay data set” (2004).
Active and inactive are the calls of the source.

Legend:
[1] = molecular target: T1, Microphthalmia-associated transcription factor (Homo sapiens, UniProt O75030); assay: TRPM1 promoter luciferase signal decrease, dose response, MITF inhibitor project, cell-based, SK-MEL-5, cherry-picked, set 3 (AID 493073); assay type: functional
T1 sequence (O75030 whole entry): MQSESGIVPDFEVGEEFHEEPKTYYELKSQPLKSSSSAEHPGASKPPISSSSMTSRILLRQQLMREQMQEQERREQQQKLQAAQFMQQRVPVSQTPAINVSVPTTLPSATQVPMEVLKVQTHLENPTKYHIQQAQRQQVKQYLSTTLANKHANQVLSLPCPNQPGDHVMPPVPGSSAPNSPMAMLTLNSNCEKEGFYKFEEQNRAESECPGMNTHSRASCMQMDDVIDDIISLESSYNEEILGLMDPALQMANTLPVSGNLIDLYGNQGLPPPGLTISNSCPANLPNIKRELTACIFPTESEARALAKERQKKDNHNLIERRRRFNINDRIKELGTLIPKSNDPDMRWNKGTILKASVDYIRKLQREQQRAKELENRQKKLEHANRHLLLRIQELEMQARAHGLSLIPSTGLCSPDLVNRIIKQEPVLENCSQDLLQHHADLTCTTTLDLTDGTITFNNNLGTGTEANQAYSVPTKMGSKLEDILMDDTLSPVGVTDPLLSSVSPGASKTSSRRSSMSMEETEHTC

HEK293 = assay: cells; assay type: functional, cell-based; settings: Homo sapiens;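 note: NOD2 overexpressing HEK293T cells carrying an NF-kB luciferase reporter; compound exposure roughly 14 hours overnight then 1 hour with resazurin; potency is for loss of cell viability meaning cytotoxicity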
Streptococcus = assay: Group A Streptococcus viability loss, dose response, counter-screen for streptokinase expression inhibitor project, luminescence, BacTiterGlo (AID 1915); assay type: functional, organism-based;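 note: potency for reduction of bacterial viability or growth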
[2] = molecular target: T2, Rac GTPase-activating protein 1 (Homo sapiens, UniProt Q9H0H5); assay: MgcRacGAP GTPase-activating activity inhibitors, confirmation, biochemical, ADP Hunter fluorescence, primary and confirmatory (AID 624330); assay type: functional
T2 sequence (Q9H0H5 whole entry): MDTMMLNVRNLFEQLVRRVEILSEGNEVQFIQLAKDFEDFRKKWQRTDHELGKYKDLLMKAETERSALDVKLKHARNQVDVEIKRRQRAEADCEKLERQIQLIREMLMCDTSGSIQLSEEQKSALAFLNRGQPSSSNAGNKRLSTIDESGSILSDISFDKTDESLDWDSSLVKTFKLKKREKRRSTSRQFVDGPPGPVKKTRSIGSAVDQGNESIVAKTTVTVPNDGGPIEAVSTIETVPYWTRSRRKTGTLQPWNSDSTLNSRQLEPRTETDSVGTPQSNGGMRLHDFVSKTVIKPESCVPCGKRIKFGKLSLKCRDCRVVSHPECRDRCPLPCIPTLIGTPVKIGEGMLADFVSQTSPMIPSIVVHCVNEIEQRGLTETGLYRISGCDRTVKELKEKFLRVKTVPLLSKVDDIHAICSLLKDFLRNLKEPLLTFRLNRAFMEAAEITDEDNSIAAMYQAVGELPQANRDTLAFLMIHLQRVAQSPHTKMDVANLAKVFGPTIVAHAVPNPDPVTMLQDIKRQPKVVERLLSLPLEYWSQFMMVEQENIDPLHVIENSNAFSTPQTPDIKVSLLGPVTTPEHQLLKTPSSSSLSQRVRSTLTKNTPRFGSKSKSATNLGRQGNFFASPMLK

[3] = molecular target: T3, Histone-lysine N-methyltransferase NSD2 (Homo sapiens, UniProt O96028); assay type: biochemical
T3 sequence (O96028 whole entry): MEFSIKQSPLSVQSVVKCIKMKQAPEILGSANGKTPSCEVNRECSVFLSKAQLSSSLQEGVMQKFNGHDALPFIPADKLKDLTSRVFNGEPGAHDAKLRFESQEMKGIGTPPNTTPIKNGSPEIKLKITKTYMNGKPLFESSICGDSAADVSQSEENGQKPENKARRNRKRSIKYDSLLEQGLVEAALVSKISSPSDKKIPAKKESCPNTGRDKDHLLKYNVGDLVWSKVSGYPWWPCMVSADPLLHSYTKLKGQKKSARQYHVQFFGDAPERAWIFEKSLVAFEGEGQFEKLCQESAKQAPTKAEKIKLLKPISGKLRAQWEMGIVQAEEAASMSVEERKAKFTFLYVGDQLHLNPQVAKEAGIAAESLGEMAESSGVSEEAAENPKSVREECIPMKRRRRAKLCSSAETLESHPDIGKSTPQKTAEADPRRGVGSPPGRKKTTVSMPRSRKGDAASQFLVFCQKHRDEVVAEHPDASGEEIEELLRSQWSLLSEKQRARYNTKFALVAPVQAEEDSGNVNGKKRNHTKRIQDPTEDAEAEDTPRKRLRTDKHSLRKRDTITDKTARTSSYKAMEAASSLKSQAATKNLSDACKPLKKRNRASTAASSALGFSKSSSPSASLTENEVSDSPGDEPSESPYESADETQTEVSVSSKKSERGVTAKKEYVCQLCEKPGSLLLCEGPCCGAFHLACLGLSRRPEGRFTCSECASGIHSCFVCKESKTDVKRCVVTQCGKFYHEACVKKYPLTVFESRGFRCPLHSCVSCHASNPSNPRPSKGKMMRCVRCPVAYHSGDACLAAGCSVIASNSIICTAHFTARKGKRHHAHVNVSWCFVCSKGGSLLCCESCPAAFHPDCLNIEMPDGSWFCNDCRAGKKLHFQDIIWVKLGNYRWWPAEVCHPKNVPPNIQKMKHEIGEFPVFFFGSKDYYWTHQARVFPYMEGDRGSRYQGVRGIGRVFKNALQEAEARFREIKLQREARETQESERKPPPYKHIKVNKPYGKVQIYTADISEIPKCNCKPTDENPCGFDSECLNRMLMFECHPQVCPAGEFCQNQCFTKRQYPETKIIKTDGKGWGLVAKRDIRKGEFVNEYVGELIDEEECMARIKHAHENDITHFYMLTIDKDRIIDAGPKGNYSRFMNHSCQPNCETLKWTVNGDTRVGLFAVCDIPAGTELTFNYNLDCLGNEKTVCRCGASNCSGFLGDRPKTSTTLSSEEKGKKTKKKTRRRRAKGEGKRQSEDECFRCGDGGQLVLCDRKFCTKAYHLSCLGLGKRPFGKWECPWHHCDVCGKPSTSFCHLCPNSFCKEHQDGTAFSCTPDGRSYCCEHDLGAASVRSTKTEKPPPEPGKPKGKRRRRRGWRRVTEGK

Vero = Vero cell cytotoxicity, cytotoxicity control for flavivirus capping enzyme inhibitors (AID 588742); assay type: functional; settings: Chlorocebus sabaeus
[4] = HEK293T cytotoxicity, dose response, cytotoxicity control for miR-122 modulator project, cell-based, activator set, cherry-pick (AID 720690); assay type: functional;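 note: HEK293T human cells scored for general mammalian cytotoxicity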

O=C(CNc1cccc2ccccc12)N/N=C/c1ccc([N+](=O)[O-])o1
AC50 [1]: 5.05 µM (active) | IC50 (HEK293): > 20 µM (inactive) | EC50 (Streptococcus): 6.2 µM (active)

Cc1ccc(NC(=O)C2=C(c3ccccc3)S(=O)(=O)CCS2(=O)=O)cc1
IC50 [2]: 97.4 µM (active)

O=C(O)CSc1cc(NS(=O)(=O)c2ccc(Br)cc2)c2ccccc2c1O
AC50 [3]: 1.65 µM (active) | CC50 (Vero): 34 µM (active)

O=C(CC(O)(C(F)(F)F)C(F)(F)F)Nc1ccc(Cl)c(Cl)c1
AC50 [4]: 2.27 µM (active)
